These results are taken from PMC9841576, “Characterisation of C101248: A novel selective THIK-1 channel inhibitor for the modulation of microglial NLRP3-inflammasome” (Neuropharmacology, 2023).

Test [1] has as its target T1, Kv2.1 (Homo sapiens, UniProt Q14721).
T1 construct: host or cells: CHO
Kind of test: FLIPR thallium influx assay, potassium sulphate stimulated CHO-Kv2.1 cells. Type of test: cell-based. As to conditions: potassium sulphate stimulated CHO-Kv2.1, at 30 μM; read-out: inhibition of thallium flux. As to the method: HEK-293 cells were transfected with human THIK-1, TREK-1, TWIK-2, or mouse THIK-1 cDNA cloned into pcDNA3.1, using either Fugene HD transfection reagent (Promega) or electroporation (MaxCyte STX instrument). Cells stably expressing the relevant genes were selected based on resistance to 500 μg/ml geneticin (Gibco). For human THIK-1 and TWIK-2 expressing cells, monoclonal lines were isolated by limited dilution cloning; mouse THIK-1 and human TREK-1 expressing cells were maintained as polyclonal pools. The HEK-293 pools and monoclones stably expressing the relevant genes were maintained in DMEM (Life Technologies), supplemented with 10% FCIII (HyClone, Fetal clone III) and 500 μg/ml geneticin. A CHO-Kv2.1 cell line was purchased from Millipore (accession NM_004975) and maintained in F12 (Life Technologies), supplemented with 10% FCSIII (Thermo Scientific) and 500 μg/ml geneticin (Life Technologies). […]
A fluorescence-based thallium influx assay (Molecular Devices potassium assay kit) was used to monitor channel activity. […] Using a fluorescent imaging plate reader (FLIPR) tetra plate reader, 15 μl thallium stimulus solution was added to the cell plate and the fluorescence signal recorded every second for 1 min (excitation: 470–495 nm, emission: 515–575 nm).

Test [2] addresses T2, THIK-1 (Homo sapiens, UniProt Q9HB14).
T2 construct: expressed in transfected cells
T2 sequence (Q9HB14 1-408): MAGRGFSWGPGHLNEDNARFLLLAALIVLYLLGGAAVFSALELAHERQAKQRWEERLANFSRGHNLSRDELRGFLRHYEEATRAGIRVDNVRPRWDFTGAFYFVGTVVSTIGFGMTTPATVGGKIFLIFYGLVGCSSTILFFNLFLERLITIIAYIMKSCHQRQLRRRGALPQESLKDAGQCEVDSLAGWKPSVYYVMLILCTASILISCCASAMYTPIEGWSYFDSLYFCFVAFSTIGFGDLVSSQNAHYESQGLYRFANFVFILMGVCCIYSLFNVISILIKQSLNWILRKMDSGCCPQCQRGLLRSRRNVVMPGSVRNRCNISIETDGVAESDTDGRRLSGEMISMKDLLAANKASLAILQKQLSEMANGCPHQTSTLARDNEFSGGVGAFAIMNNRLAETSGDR
Kind of test: Competition radioligand binding with 3H-C101505, membranes from HEK-hKCNK13 cells. The protocol:
From within the same chemotype as C101248, a structurally related compound (C101505) was tritiated for use in radioligand binding studies (specific activity 14 Ci/mmol). All radioligand binding assays were performed by Gifford Bioscience (Birmingham, UK). Cells were grown to approximately 90% confluence, washed twice with PBS and once with PBS with sucrose (10%) solution that was removed before the flasks were stored at −80 °C. Upon thawing, ice-cold lysis buffer (50 mM Tris-HCl; 5 mM MgCl2; 5 mM EDTA; protease inhibitor cocktail) was added to the flasks for 5 min (4 °C) and the cell layer scraped into collection tubes. The lysate was centrifuged at 13,000 g for 10 min (4 °C) to pellet the membranes. […] A sample of the homogenate was analysed for protein content using a BCA protein assay kit. […] Filters were then dried under a warm air stream, sealed in polyethylene, scintillation cocktail added, and the radioactivity counted in a MicroBeta TriLux counter (Wallac). […] The in vitro binding affinity (Ki) of C101248 was calculated from the experimental IC50 value using the Cheng-Prusoff equation (([Cheng and Prusoff, 1973]) Ki = IC50/(1 + ([L]/KD)), where [L] was the radioligand concentration in the displacement assay and KD was the radioligand dissociation constant determined from previous saturation binding studies.

T1 sequence (Q14721 whole entry): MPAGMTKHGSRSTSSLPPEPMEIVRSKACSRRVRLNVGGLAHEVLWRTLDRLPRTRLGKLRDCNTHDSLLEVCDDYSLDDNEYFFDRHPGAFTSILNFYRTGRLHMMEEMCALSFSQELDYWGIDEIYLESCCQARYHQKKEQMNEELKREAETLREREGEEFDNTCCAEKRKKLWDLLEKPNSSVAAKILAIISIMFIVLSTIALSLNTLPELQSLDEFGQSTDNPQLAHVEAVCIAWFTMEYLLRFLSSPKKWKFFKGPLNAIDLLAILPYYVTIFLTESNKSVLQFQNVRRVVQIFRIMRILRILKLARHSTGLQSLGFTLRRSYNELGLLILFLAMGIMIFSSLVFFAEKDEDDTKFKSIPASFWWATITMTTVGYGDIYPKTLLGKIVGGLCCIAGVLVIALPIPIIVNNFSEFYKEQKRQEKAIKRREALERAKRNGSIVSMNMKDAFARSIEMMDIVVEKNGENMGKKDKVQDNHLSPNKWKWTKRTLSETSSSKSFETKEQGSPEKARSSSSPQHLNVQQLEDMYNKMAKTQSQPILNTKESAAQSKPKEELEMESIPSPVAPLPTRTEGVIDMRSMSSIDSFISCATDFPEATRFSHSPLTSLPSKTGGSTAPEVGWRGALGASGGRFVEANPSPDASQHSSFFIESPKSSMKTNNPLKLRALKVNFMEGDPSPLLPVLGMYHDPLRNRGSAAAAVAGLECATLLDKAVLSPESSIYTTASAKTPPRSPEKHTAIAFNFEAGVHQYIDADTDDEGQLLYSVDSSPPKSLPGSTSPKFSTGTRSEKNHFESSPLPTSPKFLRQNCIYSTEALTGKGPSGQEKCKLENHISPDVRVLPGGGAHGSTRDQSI

The term inhibition denotes the relative decrease from the control value, in per cent. What is called Ki is a dissociation constant, usually derived from enzyme kinetics or from competition with a known ligand. Low values mean tighter binding, high ones weaker binding. As usually defined, the IC50 is the concentration that gives 50% inhibition. Turning to `Nc1nonc1-c1nc2ccccc2n1Cc1ccncc1` [C101248], the inhibition at 30 µM in test [1] was -3%. In test [2] (Cheng-Prusoff from IC50, radioligand 3H-C101505), this compound displayed a Ki of 57 nM. Further, in test [2] (radioligand 3H-C101505, HEK-hKCNK13 membranes, read-out: IC50, displacement of radioligand), the IC50 was 77 nM.
